Experimental data from ChEMBL document CHEMBL5724914, “Linking interpersonal differences in gut microbiota composition and drug biotransformation activity” (2024).

Legend:
[1] = human gut metagenome, 24 h, 2 µM
[2] = (§1) The drug is tested on Z-005 corresponding to metagenome with ENA study accession number: PRJEB37062 and ENA sample accession number: ERS12561805 for biotransformation under anaerobic condition. The drug concentrations were measured over 9 timepoints collected between 0 and 24 hours of incubation by liquid-chromatography-coupled mass spectrometry (LC–MS); conditions: 2 µM
[3] = human gut metagenome, 24 h, 2 µM; remark: listed apart in the source
[4] = (§2) The drug is tested on Z-002 corresponding to rabbit gut metagenome with ENA study accession number: PRJEB37062 and ENA sample accession number: ERS12561802 for biotransformation under anaerobic condition. The drug concentrations were measured over 9 timepoints collected between 0 and 24 hours of incubation by liquid-chromatography-coupled mass spectrometry (LC–MS); conditions: 2 µM
[5] = as §1, with “Z-010” for “Z-005”, “ERS12561810” for “ERS12561805”; conditions: 2 µM
[6] = as §2, with “WLS-027” for “Z-002”, “human” for “rabbit”, “ERS12561744” for “ERS12561802”; conditions: 2 µM
[7] = as §2, with “WLS-039” for “Z-002”, “human” for “rabbit”, “ERS12561746” for “ERS12561802”; conditions: 2 µM
[8] = human gut metagenome, 24 h, 2 µM; remark: listed apart in the source
[9] = human gut metagenome, 24 h, 2 µM; remark: listed apart in the source
Note: call rule not given here.

Row | Structure (SMILES) | Bacterial Biotransformation [1] | Bacterial Biotransformation [2] | Bacterial Biotransformation [3] | Bacterial Biotransformation [4] | Bacterial Biotransformation [5] | Bacterial Biotransformation [6] | Bacterial Biotransformation [7] | Bacterial Biotransformation [8] | Bacterial Biotransformation [9]
1 | CC1=C(CC(=O)O)c2cc(F)ccc2/C1=C\c1ccc([S+](C)[O-])cc1 (centres undefined) | Compound NOT metabolized | Compound NOT metabolized | Compound NOT metabolized | Compound NOT metabolized | Compound NOT metabolized | Compound metabolized | Compound metabolized | Compound metabolized | Compound metabolized
2 | CCOC(=O)[C@H](CCc1ccccc1)N[C@@H](C)C(=O)N1Cc2ccccc2C[C@H]1C(=O)O | Compound metabolized | Compound NOT metabolized | Compound metabolized | Compound metabolized | Compound NOT metabolized | Compound metabolized | Compound metabolized | Compound metabolized | Compound metabolized
3 | N[C@@H](Cc1ccc(N(CCCl)CCCl)cc1)C(=O)O | Compound metabolized | – | – | Compound metabolized | – | Compound metabolized | Compound metabolized | Compound NOT metabolized | Compound NOT metabolized
4 | CCN1CCCC1CNC(=O)c1cc(S(=O)(=O)CC)c(N)cc1OC (centres undefined) [AMISULPRIDE] | Compound NOT metabolized | Compound NOT metabolized | Compound metabolized | Compound metabolized | Compound NOT metabolized | Compound NOT metabolized | Compound NOT metabolized | Compound NOT metabolized | Compound metabolized
5 | CCCCC(=O)O[C@]1(C(=O)CO)[C@@H](C)C[C@H]2[C@@H]3CCC4=CC(=O)C=C[C@]4(C)[C@@]3(F)[C@@H](O)C[C@@]21C [BETAMETHASONE VALERATE] | Compound metabolized | – | Compound metabolized | – | – | Compound metabolized | Compound metabolized | Compound metabolized | Compound metabolized
6 | CC(=O)Oc1ccc(C(c2ccc(OC(C)=O)cc2)c2ccccn2)cc1 [BISACODYL] | Compound metabolized | – | Compound metabolized | – | – | Compound metabolized | Compound metabolized | Compound metabolized | Compound metabolized
7 | CC(=O)OCC(=O)[C@@]1(OC(C)=O)[C@@H](C)C[C@H]2[C@@H]3C[C@H](F)C4=CC(=O)C=C[C@]4(C)[C@@]3(F)[C@@H](O)C[C@@]21C [DIFLORASONE DIACETATE] | Compound metabolized | Compound metabolized | Compound metabolized | Compound metabolized | Compound metabolized | Compound metabolized | Compound metabolized | Compound metabolized | Compound metabolized
8 | C[C@]12CCC(=O)C=C1[C@@H]1C[C@@H]1[C@H]1[C@@H]3[C@@H]4C[C@@H]4[C@@]4(CCC(=O)O4)[C@@]3(C)CC[C@@H]12 [DROSPIRENONE] | Compound NOT metabolized | Compound metabolized | Compound metabolized | Compound metabolized | Compound metabolized | Compound metabolized | Compound metabolized | Compound metabolized | Compound metabolized
9 | CNCC[C@H](Oc1cccc2ccccc12)c1cccs1 [DULOXETINE] | Compound NOT metabolized | – | Compound metabolized | – | – | Compound NOT metabolized | Compound NOT metabolized | Compound NOT metabolized | Compound metabolized
10 | C#C[C@]1(OC(C)=O)CC[C@H]2[C@@H]3CCC4=C[C@@H](OC(C)=O)CC[C@@H]4[C@H]3CC[C@@]21C [ETHYNODIOL DIACETATE] | Compound metabolized | Compound metabolized | Compound metabolized | Compound metabolized | Compound metabolized | – | Compound metabolized | Compound metabolized | Compound metabolized
11 | CC(C)c1c(CN(C)C(C)Cc2ccccc2)n(C)n(-c2ccccc2)c1=O (centres undefined) [FAMPROFAZONE] | Compound metabolized | Compound metabolized | Compound metabolized | Compound metabolized | Compound metabolized | Compound metabolized | Compound metabolized | Compound metabolized | Compound metabolized
12 | COCCCC/C(=N\OCCN)c1ccc(C(F)(F)F)cc1.O=C(O)/C=C\C(=O)O [FLUVOXAMINE MALEATE] | Compound metabolized | – | Compound NOT metabolized | – | – | Compound NOT metabolized | Compound NOT metabolized | Compound NOT metabolized | Compound metabolized
13 | N#Cc1ccc2c(c1)N(CCCN1CCC(O)CC1)c1ccccc1S2 [PERICIAZINE] | Compound NOT metabolized | – | Compound metabolized | – | – | Compound metabolized | Compound NOT metabolized | Compound NOT metabolized | Compound metabolized
14 | CN(C/C=C/C#CC(C)(C)C)Cc1cccc2ccccc12 [TERBINAFINE] | Compound NOT metabolized | Compound NOT metabolized | Compound metabolized | Compound NOT metabolized | Compound NOT metabolized | Compound NOT metabolized | – | Compound metabolized | Compound NOT metabolized

Results, then the molecule that gave them:

Row | Bacterial Biotransformation [1] | Bacterial Biotransformation [2] | Bacterial Biotransformation [3] | Bacterial Biotransformation [4] | Bacterial Biotransformation [5] | Bacterial Biotransformation [6] | Bacterial Biotransformation [7] | Bacterial Biotransformation [8] | Bacterial Biotransformation [9] | Structure (SMILES)
15 | Compound metabolized | Compound NOT metabolized | Compound metabolized | Compound NOT metabolized | Compound NOT metabolized | Compound NOT metabolized | Compound metabolized | Compound NOT metabolized | Compound metabolized | CN1CCC(OC(c2ccccc2)c2ccccc2)CC1
16 | Compound metabolized | – | Compound metabolized | – | – | Compound NOT metabolized | Compound NOT metabolized | Compound NOT metabolized | Compound metabolized | CN(C)CCc1c[nH]c2ccc(CS(=O)(=O)N3CCCC3)cc12 [ALMOTRIPTAN]
17 | Compound NOT metabolized | Compound NOT metabolized | Compound metabolized | Compound NOT metabolized | Compound NOT metabolized | Compound NOT metabolized | Compound NOT metabolized | Compound NOT metabolized | Compound metabolized | CC(C)NCC(O)COc1ccc(CC(N)=O)cc1 (centres undefined) [ATENOLOL]
18 | Compound metabolized | – | Compound metabolized | – | – | Compound metabolized | Compound metabolized | Compound NOT metabolized | Compound metabolized | Cc1nc(Nc2ncc(C(=O)Nc3c(C)cccc3Cl)s2)cc(N2CCN(CCO)CC2)n1 [DASATINIB ANHYDROUS]
19 | Compound NOT metabolized | Compound NOT metabolized | Compound metabolized | Compound NOT metabolized | Compound NOT metabolized | Compound metabolized | Compound metabolized | Compound metabolized | Compound metabolized | CN(C)CCC=C1c2ccccc2COc2ccccc21 [DOXEPIN]
20 | Compound NOT metabolized | – | Compound NOT metabolized | – | – | – | Compound metabolized | Compound NOT metabolized | Compound NOT metabolized | CC#CCn1c(N2CCC[C@@H](N)C2)nc2c1c(=O)n(Cc1nc(C)c3ccccc3n1)c(=O)n2C [LINAGLIPTIN]
21 | Compound NOT metabolized | Compound NOT metabolized | Compound NOT metabolized | – | – | – | Compound NOT metabolized | Compound NOT metabolized | Compound metabolized | CNNCc1ccc(C(=O)NC(C)C)cc1 [PROCARBAZINE]
22 | Compound metabolized | Compound metabolized | – | Compound metabolized | Compound metabolized | Compound metabolized | Compound metabolized | Compound metabolized | Compound metabolized | N#Cc1ccc2[nH]cc(CCCCN3CCN(c4ccc5oc(C(N)=O)cc5c4)CC3)c2c1 [VILAZODONE]
